Data taken from US20080193402A1, “Depilatory Compositions” (priority 2005, published 2008).

Test: 2AET storage stability at 40° C. in different packages
Type: physicochemical
Method: The single phase depilatory was then packaged into two separate containers. The first was an aluminum can with a bag-on-valve system, while the second was a standard high density polyethylene bottle.
The 2AET levels were evaluated at initial, 1 month and 3 months after storage at 40° C. to determine stability profiles.

## NCCS [Example 2AET, 2-aminoethanethiol]
Example 13 single phase depilatory in HDPE (full), 1 month/40° C.
  2AET level: 6.7%
Example 13 single phase depilatory in HDPE (full), 3 months/40° C.
  2AET level: 6.6%
Example 13 single phase depilatory in HDPE (full), initial
  2AET level: 7.2%
Example 13 single phase depilatory in HDPE (half), 1 month/40° C.
  2AET level: 6.3%
Example 13 single phase depilatory in HDPE (half), 3 months/40° C.
  2AET level: 5.9%
Example 13 single phase depilatory in HDPE (half), initial
  2AET level: 7.1%
Example 13 single phase depilatory in aluminum can with bag-on-valve, 1 month/40° C.
  2AET level: 7.3%
Example 13 single phase depilatory in aluminum can with bag-on-valve, 3 months/40° C.
  2AET level: 7.3%
Example 13 single phase depilatory in aluminum can with bag-on-valve, initial
  2AET level: 7.3%
